In series [1] the target is T1, Cystine/glutamate transporter (Homo sapiens) (UniProt Q9UPY5).
T1 sequence (whole entry): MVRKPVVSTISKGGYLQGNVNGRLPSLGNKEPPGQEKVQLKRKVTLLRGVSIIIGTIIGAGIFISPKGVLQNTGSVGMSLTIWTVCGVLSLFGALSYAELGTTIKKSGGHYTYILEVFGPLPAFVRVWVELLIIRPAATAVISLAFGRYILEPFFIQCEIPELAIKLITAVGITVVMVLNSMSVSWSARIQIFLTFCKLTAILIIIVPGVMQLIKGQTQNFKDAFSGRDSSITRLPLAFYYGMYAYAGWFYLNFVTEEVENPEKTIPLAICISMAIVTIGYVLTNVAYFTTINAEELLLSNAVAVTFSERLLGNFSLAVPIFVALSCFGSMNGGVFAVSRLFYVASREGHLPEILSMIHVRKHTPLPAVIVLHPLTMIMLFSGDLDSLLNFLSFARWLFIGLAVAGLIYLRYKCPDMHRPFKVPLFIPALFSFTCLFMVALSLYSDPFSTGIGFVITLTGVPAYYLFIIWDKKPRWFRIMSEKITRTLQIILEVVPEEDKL
Nature of the series: Inhibition of Xc- in human MDA-MB-468 cells assessed as decrease in glutamate release at 25 nM incubated for 12 hrs. The series is classed as cell-based.

The test system of series [2] is MDA-MB-468. Nature of the series: Induction of endoplasmic reticulum (ER) stress-mediated apoptosis in human MDA-MB-468 cells assessed as reduction in ATF4 expression at 25 nM measured for 12 hrs in presence of 4-PBA by Western blot analysis. The series is classed as functional, cell-based.
The subject of series [3] is MDA-MB-468. Nature of the series: Induction of apoptosis in CHOP knockdown human MDA-MB-468 cells assessed as increase in caspase 3/7 activation at 25 nM measured at 12 hrs by Western blot analysis. The series is classed as functional, cell-based.
Series [4] concerns MDA-MB-468. Nature of the series: Induction of apoptosis in human MDA-MB-468 cells assessed as increase in caspase 3/7 activation at 25 nM measured at 12 hrs in presence of 4-PBA by Western blot analysis. The series is classed as functional, cell-based. (In general: Immunoblotting shows a protein as a band on a membrane.)
In series [5] the test system is MDA-MB-468. Put plainly: Induction of endoplasmic reticulum (ER) stress-mediated apoptosis in human MDA-MB-468 cells assessed as increase in p-PERK level at 25 nM measured after 12 hrs by Western blot analysis. The series is classed as functional, cell-based.
Series [6] deals with MDA-MB-468. Put plainly: Induction of endoplasmic reticulum (ER) stress-mediated apoptosis in human MDA-MB-468 cells assessed as increase in phospho-eIF2alpha level at 25 nM measured after 12 hrs by Western blot analysis. Type of series: functional, cell-based.
In series [7] the test system is MDA-MB-468. Put plainly: Induction of ferroptosis in human MDA-MB-468 cells assessed as increase in MDA level at 25 nM. The series is classed as functional, cell-based.
In series [8] the test system is MDA-MB-468. Nature of the series: Induction of mitochondrial ROS generation in human MDA-MB-468 cells at 25 nM incubated for 6 hrs by MitoSOX dye staining based flow cytometry analysis. Type of series: functional, cell-based. A general note: In flow cytometry, cells or beads pass a laser one at a time.
Series [9] has as its system MDA-MB-468. Nature of the series: Induction of apoptosis in human MDA-MB-468 cells transfected with ATF4 SiRNA assessed as increase in caspase 3/7 activation at 25 nM measured at 12 hrs by Western blot analysis. The series is classed as functional, cell-based.
For series [10], the system named is MDA-MB-468. Put plainly: Induction of ferroptosis in human MDA-MB-468 cells assessed as decrease in MDA level at 25 nM in presence of ferrostatin-1. Type of series: functional, cell-based.
Series [11] concerns the target T2, Thioredoxin reductase 1, cytoplasmic (Homo sapiens) (UniProt Q16881).
T2 sequence (whole entry): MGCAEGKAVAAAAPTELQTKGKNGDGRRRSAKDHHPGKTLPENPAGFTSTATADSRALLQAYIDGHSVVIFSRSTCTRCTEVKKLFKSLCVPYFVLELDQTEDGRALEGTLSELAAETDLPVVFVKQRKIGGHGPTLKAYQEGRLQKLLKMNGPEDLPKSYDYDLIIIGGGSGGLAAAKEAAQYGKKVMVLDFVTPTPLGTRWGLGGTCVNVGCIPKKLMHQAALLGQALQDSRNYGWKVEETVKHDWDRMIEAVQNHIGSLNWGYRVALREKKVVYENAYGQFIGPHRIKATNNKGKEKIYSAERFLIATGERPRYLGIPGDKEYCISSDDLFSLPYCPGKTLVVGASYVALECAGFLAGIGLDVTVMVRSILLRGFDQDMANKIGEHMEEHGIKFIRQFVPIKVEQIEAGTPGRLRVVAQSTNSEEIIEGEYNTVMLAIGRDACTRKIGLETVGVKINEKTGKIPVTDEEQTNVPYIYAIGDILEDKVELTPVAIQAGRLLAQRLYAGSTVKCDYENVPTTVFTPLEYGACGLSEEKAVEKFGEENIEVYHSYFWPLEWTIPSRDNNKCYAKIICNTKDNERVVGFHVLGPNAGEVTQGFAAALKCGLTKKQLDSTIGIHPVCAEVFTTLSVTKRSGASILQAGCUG
Nature of the series: Inhibition of recombinant TRXR1 (unknown origin) assessed as reduction in DTNB incubated for 2 hrs in presence of NADPH by microplate reader analysis.

For series [12], the system named is MDA-MB-468. Nature of the series: Induction of ferroptosis in human MDA-MB-468 cells assessed as reduction in intracellular GSH level at 25 nM incubated for 12 hrs. The series is classed as functional, cell-based.
The subject of series [13] is MDA-MB-468. Put plainly: Induction of ferroptosis in human MDA-MB-468 cells assessed as decrease in lipid peroxidation level at 25 nM incubated for 6 hrs in presence of ferrostatin-1 by C11-BODIPY staining based flow cytometry analysis. Type of series: functional, cell-based.
The test system of series [14] is MDA-MB-468. Nature of the series: Induction of endoplasmic reticulum (ER) stress-mediated apoptosis in human MDA-MB-468 cells assessed as increase in ATF4 expression at 25 nM measured after 12 hrs by Western blot analysis. Type of series: functional, cell-based.
For series [15], the target named is T3, Phospholipid hydroperoxide glutathione peroxidase GPX4 (Homo sapiens) (UniProt P36969).
T3 sequence (whole entry): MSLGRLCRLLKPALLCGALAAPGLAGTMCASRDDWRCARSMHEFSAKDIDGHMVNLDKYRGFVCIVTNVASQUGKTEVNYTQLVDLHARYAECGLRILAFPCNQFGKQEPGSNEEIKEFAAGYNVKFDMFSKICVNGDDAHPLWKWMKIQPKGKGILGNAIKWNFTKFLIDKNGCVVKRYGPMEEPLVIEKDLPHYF
Put plainly: Inhibition of GPX4 in human MDA-MB-468 cells incubated for 12 hrs in presence of NADPH. As to conditions: dose 25.0 nM. Type of series: cell-based.

The test system of series [16] is MDA-MB-468. Put plainly: Induction of endoplasmic reticulum (ER) stress-mediated apoptosis in human MDA-MB-468 cells assessed as reduction in CHOP expression at 25 nM measured for 12 hrs in presence of 4-PBA by Western blot analysis. The series is classed as functional, cell-based.
The subject of series [17] is MDA-MB-468. Put plainly: Induction of ferroptosis in human MDA-MB-468 cells assessed as increase in 4-HNE level at 25 nM. The series is classed as functional, cell-based.
Series [18] concerns MDA-MB-468. Put plainly: Induction of ferroptosis in human MDA-MB-468 cells assessed as increase in cell viability at 25 nM incubated for 48 hrs in presence of Z-VAD. The series is classed as functional, cell-based.
Series [19] concerns MDA-MB-468. Put plainly: Induction of ROS production in human MDA-MB-468 cells expressing TrxR1 assessed as reduction in ROS level at 25 nM incubated for 6 hrs by DCFH-DA staining based flow cytometry analysis. Type of series: functional, cell-based.
Series [20] deals with MDA-MB-468. Nature of the series: Effect on TRXR1 expression in human MDA-MB-468 cells at 25 nM incubated for 24 hrs by Western blot analysis. The series is classed as functional, cell-based.
In series [21] the test system is HEK293. Put plainly: Antiproliferative activity against human HEK293 cells assessed as cell viability upto 50 nM incubated for 48 hrs by MTT assay. The series is classed as toxicity, cell-based. As to conditions: hek293, 48 h, 0.05 µM. On the technique in general: Tetrazolium dyes change colour on reduction, which living cells bring about.

In ChEMBL document CHEMBL6078706, “Deciphering the Comprehensive Structure-Activity Relationship of Sunshinamide for Breast Cancer Therapy through Dual Modulation of Apoptotic and Ferroptotic Pathways via TrxR1 and Gpx4 Inhibition” (J Med Chem, 2024) one finds inhibition and Activity data, which are given here for 3 compounds.

Each structure is given as a SMILES string. The source made the active and inactive calls. The rule behind the calls is not given here.

`CCCCCCC[C@@H](O)CC(=O)N[C@H](Cc1ccccc1)C(=O)N[C@H]1CSSC[C@@H](C(=O)O)NC1=O`: the inhibition entry in series [1] and in series [11] was “inactive” each time. For the same compound, the outcome in [2], in [5], in series [6], in series [7], in series [8] and in [12] was inactive. For the same compound, the result in series [14], in [16], in [17], in [18] and in series [20] was inactive. Also, the outcome in [3], in series [4], in series [9], in series [10], in series [13] and in series [19] was Active. For the same compound, the inhibition result in [15] was “Dose-dependent-effect”. Moreover, the Activity result in [21] is given as “Non-toxic”.
Turning to `CCCCCCC[C@@H]1CC(=O)N[C@H](Cc2ccccc2)C(=O)N[C@@H](CSC)C(=O)N[C@@H](CSC)C(=O)O1`, the inhibition entry in series [1] and in series [11] was “inactive” in each case. For the same compound, the outcome in [2], in [5], in series [6], in [7], in series [8] and in [12] was inactive. The result in series [14], in series [16], in series [17], in series [18] and in [20] was inactive. Further, the outcome in [3], in series [4], in series [9], in series [10], in series [13] and in [19] was Active. Also, the inhibition entry in series [15] was “Dose-dependent-effect”. In addition, in [21], the Activity result is “Non-toxic”.
Turning to `CCCCCCC[C@@H]1CC(=O)N[C@H](Cc2ccccc2)C(=O)N[C@H]2CSSC[C@H](NC2=O)C(=O)O1`, the inhibition entry in series [1] was “inactive”. Further, the result in series [2], in series [3], in series [4], in series [5], in [6] and in [8] was Active. In addition, the result in series [9], in series [10], in series [13], in [14], in [16] and in series [19] was Active. Further, the outcome in series [7], in series [12], in series [17], in series [18] and in [20] was inactive. Moreover, in series [11], the inhibition result was “Active”. For the same compound, the inhibition entry in series [15] was “Dose-dependent-effect”. The Activity entry in series [21] is “Non-toxic”.
